Data published in patent US20230181632A1 (CHEMAS CO., LTD., priority 2020, published 2023).
Like-named read-outs stand apart in the source and are kept apart here.

Columns and labels:
Vero E6 cells [1] = assay: MTT cytotoxicity assay; assay type: cell-based, African green monkey; conditions: 48 hours
Description: Vero E6 cells, which are derived from kidney cells extracted from an African green monkey, were seeded at a density of 1×10^4 cells/well into 96-well plates and incubated overnight in DMEM (Dulbecco's modified Eagle's medium) supplemented with glucose, 10% FBS (fetal bovine serum), 1% PS (penicillin+streptomycin), 1% L-glutamine 200 mM, 1% sodium pyruvate 100 mM, and nonessential amino acids before being washed with a PBS buffer.
Cytotoxicity was examined through an MTT assay. The MTT assay is a colorimetric assay for assessing cytotoxicity or viability by taking advantage of the mitochondrial ability to convert the yellow water-soluble substrate MTT tetrazolium into purple insoluble formazan product […] by the action of oxidoreductase enzymes present in mitochondria of living cells.
The cultured Vero E6 cells were seeded into 96-well plates. A 1% (w/v) solution of tetraarsenic hexoxide (As4O6) in distilled water was 1,000- to 20,000-fold diluted (As4O6 25.27 μM-1.26 μM) in DMEM and each of the dilutions was applied to the 96-well plates in duplicate, followed by incubation for 48 hours. […] Incubation at room temperature for 15 minutes made the formazan crystals completely dissolved, followed by reading absorbance at 570 nm (A570 nm) on a microplate.

SARS-CoV-2 = assay type: cell-based
Vero E6 cells [2] = assay type: cell-based, African green monkey; conditions: same RNA samples as transcriptomic assay, normalized to 18s rRNA
[3] = system: SARS-CoV-2-infected Vero E6 cells; assay type: cell-based, African green monkey; conditions: 2,000-fold diluted, 36 or 72 hours
[4] = […], 3,000-fold diluted (8.42 μM), 3 days, Vero E6
[5] = […], 4,000-fold diluted (6.32 μM), 3 days, Vero E6

Compound: O1[As]2O[As]3O[As]1O[As](O2)O3 [tetraarsenic hexoxide]
- Cytotoxicity (MTT) (Vero E6 cells [1]; 1% (w/v) solution, 2,000-fold or greater dilutions): the cells survived and did not undergo cell death
- Cytotoxicity (MTT) (Vero E6 cells [1]; 1% (w/v) solution, up to 1,000-fold dilution (25.27 μM)): exhibited cytotoxicity leading to cell death
- % Inhibition of CPE (SARS-CoV-2): 100%
- % Inhibition of CPE (cytopathic effect) (SARS-CoV-2): 100%
- % Inhibition of CPE (SARS-CoV-2; [4]): 87.5% (7/8well)
- % Inhibition of CPE (cytopathic effect) (SARS-CoV-2; [4]): 37.5% (3/8well)
- % Inhibition of CPE (SARS-CoV-2; [5]): 87.5% (7/8well)
- % Inhibition of CPE (cytopathic effect) (SARS-CoV-2; [5]): 37.5% (3/8well)
- inhibition against viral growth (SARS-CoV-2; […], across tested dilutions): 87-100%
- expression of the genes BAG3, CRYAB, HSPH1, HMOX1 and ZFAND2A (RT-PCR) (Vero E6 cells [2]): upregulated expressions
- expression of the cytokine genes CSF1, PDGFA, PDGFB, CXCL1, CXCL2, CXCL3, CXCL8, CXCL10, CCL2, and CCL20 (transcriptome) [3]: remarkably downregulated
- expression of the gene ZFAND2A (transcriptome) [3]: increased
- expression of the genes BAGS, HSPA1B, CRYAB, HMOX1, and HSPH1 (transcriptome) [3]: upregulated
